Reference: the supplement of paper PMC4954754
± gives the uncertainty stated by the source.

Assays:
Settings in all cases: 18 h
HEK293T-Rex ERSE-FLuc [1] = assay: maximal ERSE-FLuc activation from dose-response fit, relative to thapsigargin (% of thapsigargin); higher = stronger activation
Procedure: (§1)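 Dose-response of hit compounds in HEK293T-Rex cells stably expressing ERSE-FLuc or XBP1-RLuc reporters, 18 hr treatment, 1536-well; luminescence normalised to 500 nM thapsigargin (100%) and DMSO (0%), fitted to give EC50 (M) and maximal activation; '>' marks EC50 above the top tested dose (~17 µM).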

HEK293T-Rex XBP1-RLuc [2] = assay: EC50 for XBP1-RLuc reporter activation
Procedure: as §1

HEK293T-Rex ERSE-FLuc [3] = assay: EC50 for ERSE-FLuc reporter activation
Procedure: as §1

HEK293T-Rex XBP1-RLuc [4] = assay: maximal XBP1-RLuc activation from dose-response fit, relative to thapsigargin (% of thapsigargin); higher = stronger activation
Procedure: as §1

Compound | maximal ERSE-FLuc activation (HEK293T-Rex ERSE-FLuc [1]) | EC50 for XBP1-RLuc reporter activation (HEK293T-Rex XBP1-RLuc [2]) [µM] | EC50 for ERSE-FLuc reporter activation (HEK293T-Rex ERSE-FLuc [3]) [µM] | maximal XBP1-RLuc activation (HEK293T-Rex XBP1-RLuc [4])
COc1ccc(-c2csc(-c3ccc(O)cc3)n2)cc1 | 30.9 ± 6.5 | > 19.1 | > 19.1 | 33.9 ± 1.9
Cc1ccc(O)c(-c2cc(-c3cccs3)[nH]n2)c1 | 131 ± 8.8 | > 18.9 | 8.75 | 27.5 ± 2.1
COC(=O)c1c(NC(=O)CCl)sc(C(=O)Nc2cccc([N+](=O)[O-])c2)c1C | 32.9 ± 4.5 | > 16.9 | > 16.9 | 29.6 ± 2.9
CCCCCCc1ccc(-c2ncc(N)cn2)cc1 | 76.7 ± 9.1 | > 16.9 | 5.65 | 44.3 ± 1.5
CN(C)c1ccc(C(=NO)c2ccc(N(C)C)cc2)cc1 | 21.7 ± 4.1 | > 17.1 | > 17.1 | 7.51 ± 2.8
OCCNc1nc(Nc2ccc(Cl)cc2)nc2ccccc12 | 155 ± 12 | 9.68 | 6.19 | 87.4 ± 1.1
N#Cc1c(NC(=O)/C=C/c2ccco2)sc2c1CCCC2 | 22.8 ± 6.6 | > 17 | > 17 | 5.59 ± 3
CCC(=O)N(Cc1cc2cc(C)ccc2n2nnnc12)C1CCCC1 | 20.1 ± 5.6 | > 16.9 | > 16.9 | 1.64 ± 4.2
N#Cc1ccc(-c2cccs2)nc1SCc1ccccn1 | 28.6 ± 1.8 | > 16.4 | > 16.4 | 5.22 ± 2.9
CCCNC(=O)c1cc(-c2ccc(F)cc2)on1 | 65.8 ± 6.4 | > 16.9 | 12 | 11.7 ± 3.2
C/C(=N\NC(=O)c1n[nH]c2c1CCCC2)c1ccc2ccccc2c1 | 23.2 ± 3.1 | > 16.9 | > 16.9 | 8.52 ± 1
COc1ccc(NC(=O)/C(Cl)=C\c2ccccc2)cc1 | 22.2 ± 2.3 | > 16.9 | > 16.9 | 4.41 ± 5
CCN(CC)c1ccc2cc(-c3nc4ccccc4n3C)c(=O)oc2c1 | 22.8 ± 1.6 | > 10.6 | > 10.6 | 2.95 ± 3.5
O=C(CCc1ccccc1)Nc1ccc(Cl)cn1 | 26.1 ± 2.5 | > 17.7 | > 17.7 | 5.24 ± 0.68
CC(C)NC(=O)c1cc(-c2ccc(O)cc2)on1 | 1.46 ± 1 | > 16.9 | > 16.9 | 0.798 ± 0.58
CN(C)c1ccc(-c2nc3ccc(N)cc3[nH]2)cc1 | 42.7 ± 3.8 | > 15.6 | > 15.6 | 32 ± 6
Cn1cccc1/C=C1/SC(=Nc2ccccc2)NC1=O | 40.8 ± 2.8 | > 16.7 | > 16.7 | 18.6 ± 6.5
Cc1ccc(O)c(NC(=O)CSc2ccccc2)c1 | 83.1 ± 25 | > 16.9 | 3.9 | 21.2 ± 3.5
O=C(Nc1ccc(Cl)cn1)c1ccc(Cl)cc1Cl | 22.5 ± 8.3 | > 15.2 | > 15.2 | 4.15 ± 0.98
NC(=O)c1c(NC(=O)/C=C/c2ccccc2)sc2c1CCCCC2 | 22.6 ± 3.1 | > 16.9 | > 16.9 | 3.01 ± 2.8
CC(Oc1ccc(Cl)cc1Cl)C(=O)NNC(=O)c1ccc(O)c(O)c1 (configuration not stated) | 50 ± 8.3 | > 14.9 | > 14.9 | 45.2 ± 5.7
COc1ccc(C(=O)Nc2nnc(-c3cccs3)s2)cc1 | 18.8 ± 1.5 | > 16.9 | > 16.9 | 1.9 ± 0.9

Compound | maximal ERSE-FLuc activation (HEK293T-Rex ERSE-FLuc [1]) | EC50 for XBP1-RLuc reporter activation (HEK293T-Rex XBP1-RLuc [2]) [µM] | EC50 for ERSE-FLuc reporter activation (HEK293T-Rex ERSE-FLuc [3]) [µM] | maximal XBP1-RLuc activation (HEK293T-Rex XBP1-RLuc [4])
COc1ccc(/C=N/NC(=O)c2cccc(F)c2)cc1Br | 31 ± 5.5 | > 16.9 | > 16.9 | 1.14 ± 6.2
O=C(N/N=C/c1ccc2c(c1)OCO2)c1cccc(F)c1 | 20.8 ± 5.2 | > 16.9 | > 16.9 | 5.7 ± 0.65
O=C(Nc1nc2c(s1)CCCC2)c1cccc2ccccc12 | 32.2 ± 1.6 | > 18.2 | > 18.2 | 6.96 ± 1.1
CC(=O)c1cccc(Nc2nc(-c3ccc(O)c(O)c3)cs2)c1 | 87.3 ± 28 | 13.5 | 9.07 | 62.6 ± 15
O=c1[nH]c(/C=C2\C=Nc3ccccc32)c(O)n1-c1ccc(Cl)cc1 | 44.1 ± 7.8 | 4.87 | > 16.9 | 89 ± 4.6
Cc1ccc2nc(/C(C#N)=C/c3ccc(O)cc3)[nH]c2c1 | 35.3 ± 5.6 | > 16.9 | > 16.9 | 21.3 ± 3.4
O=C(Nc1ccccc1O)c1cc2ccccc2o1 | 40.6 ± 8.2 | > 21 | > 21 | 20.1 ± 3.2
Oc1ccc(-c2csc(-c3ccccc3)n2)cc1O | 65.2 ± 8.8 | 11.3 | 5.39 | 65.9 ± 7.2
COc1cccc(C2=NOC(C(=O)Nc3cc(C)ccc3O)C2)c1 (configuration not stated) | 92.8 ± 22 | > 16.9 | 7.27 | 35.1 ± 3
CC(C)c1ccc(NC(=O)/C=C/c2ccco2)cc1 | 21.5 ± 4.6 | > 17.2 | > 17.2 | 7.59 ± 2.4
COc1ccccc1-c1cc(C(=O)Nc2cc(C)ccc2O)no1 | 25.7 ± 7.9 | > 16.9 | > 16.9 | 18 ± 2.5
C/C(=N\NC(=O)c1n[nH]c2c1CCCC2)c1ccc(Br)cc1 | 32.5 ± 9.9 | > 16.9 | > 16.9 | 8.77 ± 2
CCCCCOc1ccc(N/C(N)=N/c2nc(C)cc(C)n2)cc1 | 68 ± 8.8 | 4.05 | 10.4 | 152 ± 12
CC1(C)Cc2ccccc2/C(=C/C(=O)C(=O)N/N=C/c2ccc(O)c(O)c2)N1 | 39 ± 3.2 | 6.13 | > 16.9 | 54.9 ± 3.4
CCOc1ccc(/C=C(\C#N)c2[nH]nc(N)c2C#N)cc1OCC | 59.8 ± 6.2 | > 16.9 | 10 | 15.1 ± 1.6
O=C(CCCN1CCC2(CC1)C(=O)NCN2c1ccccc1)c1ccc(F)cc1 | 157 ± 16 | 3.23 | 7.34 | 186 ± 12
O=C1NC(=Nc2ccc(F)cc2)S/C1=C\c1ccc(O)c(O)c1 | 85.9 ± 7.7 | 12.4 | 6.92 | 55.3 ± 2.5
CN(C)c1ccc(/C=C/C(=O)NC(=O)c2ccccc2OC(=O)c2ccccc2)cc1 | 25 ± 1.2 | > 12.9 | > 12.9 | 11.5 ± 1.4
COc1cccc(Nc2nc(-c3ccc(OC)c(F)c3)cs2)c1 | 19.7 ± 3.5 | > 16.9 | > 16.9 | 3.68 ± 1.6
COc1ccc(-c2nn(-c3ccccc3)cc2/C=C/C(=O)O)cc1[N+](=O)[O-] | 20.8 ± 4.1 | > 18.5 | > 18.5 | 6.98 ± 2.8
Cc1ccc2nc(/C(C#N)=C\c3cc(Cl)cc4c3OCOC4)[nH]c2c1 | 20.1 ± 3.4 | > 16 | > 16 | 3.21 ± 1.4
